The values below come from ChEMBL document CHEMBL5257123, “Synthesis of 6-alkoxy and 6-hydroxy-alkyl amine derivatives of braylin as vasorelaxing agents” (Bioorg Med Chem Lett, 2023).

The species entered for series [1] is Rattus norvegicus. In words: Vasorelaxant activity in U46619-induced preconstricted rat endothelium-intact main mesenteric artery assessed as relaxation response at 30 uM relative to control. It is filed as functional.
In series [2] the test system is BV-2. Kind of series: Anti-neuroinflammatory activity in mouse BV2 cells assessed as reduction in LPS-induced TNFalpha production at 10 uM preincubated for 30 mins followed by LPS stimulation measured after 24 hrs by ELISA. Type of series: functional, cell-based. Particulars: time 24.5 hrs.
Series [3] deals with BV-2. Kind of series: Anti-neuroinflammatory activity in mouse BV2 cells assessed as reduction in LPS-induced IL-6 production at 10 uM preincubated for 30 mins followed by LPS stimulation measured after 24 hrs by ELISA. It is filed as functional, cell-based. Particulars: time 24.5 hrs.
Series [4] is filed under the species Rattus norvegicus. In words: Vasorelaxant activity in U46619-induced preconstricted rat endothelium-intact main mesenteric artery assessed as relaxation response. Type of series: functional.
The species named for series [5] is Rattus norvegicus. Kind of series: Vasorelaxant activity in rat endothelium-intact main mesenteric artery assessed as relaxation response at 10 uM. Type of series: functional.
For series [6], the species on record is Rattus norvegicus. In words: Vasorelaxant activity in U46619-induced preconstricted rat endothelium-intact main mesenteric artery assessed as relaxation response at 10 uM (reference value: 9.08 +/- 1.25 mN). It is filed as functional. Details: scale not given: the % may be the effect or the level left.
For series [7], the species on record is Rattus norvegicus. Kind of series: Vasorelaxant activity in rat endothelium-denuded main mesenteric artery assessed as relaxation response at 10 uM. It is filed as functional.
The nature of series [8]: Cytotoxicity against VSMC (unknown origin) cells assessed as cell survival at 10 uM measured after 12 hrs by MTT assay. Type of series: toxicity, cell-based. To be noted: read-out: Activity. In general terms: Tetrazolium assays rely on reduction of a dye to a coloured formazan, in cell work by metabolically active cells.
The species named for series [9] is Rattus norvegicus. Kind of series: Vasorelaxant activity in U46619-induced contraction in rat endothelium-denuded main mesenteric arterial ring assessed as relaxation response. Type of series: functional. To be noted: Mesenteric artery.
For series [10], the species on record is Rattus norvegicus. Kind of series: Vasorelaxant activity in U46619 induced preconstricted rat endothelium-intact thoracic aortic rings assessed as vasorelaxation response. It is filed as functional. Particulars: Thoracic aorta.
The species entered for series [11] is Rattus norvegicus. Kind of series: Vasorelaxant activity in MKHS-induced preconstricted rat main mesenteric arterial rings assessed as relaxation response. It is filed as functional. Particulars: Mesenteric artery.
Series [12] is described as follows: Cytotoxicity against VSMC (unknown origin) cells assessed as cell survival at 1 uM measured after 12 hrs by MTT assay. Type of series: toxicity, cell-based. Particulars: read-out: Activity.
Series [13] is filed under the species Rattus norvegicus. Kind of series: Vasorelaxant activity in U46619-induced contraction rat endothelium-intact main mesenteric arterial rings assessed as relaxation response relative to control. It is filed as functional. Particulars: Mesenteric artery.
The species named for series [14] is Rattus norvegicus. Kind of series: Vasorelaxant activity in U46619-induced contraction in rat endothelium-denuded main mesenteric arterial ring assessed as relaxation response relative to control. It is filed as functional. To be noted: Mesenteric artery.
The species entered for series [15] is Rattus norvegicus. In words: Vasorelaxant activity in U46619-induced contraction rat endothelium-intact main mesenteric arterial rings assessed as relaxation response. It is filed as functional. Particulars: Mesenteric artery.

Active and inactive are the calls of the source. No cut-off for these calls is given here.

For orientation: Emax means the greatest response seen or fitted, relative to the assay's reference. Consider `CCN1CCN(CC(O)COc2cc3ccc(=O)oc3c3c2OC(C)(C)C=C3)CC1` (stereo not given), for which the Emax at 30 µM in the series filed under Rattus norvegicus [1] is less than 50%.

For the compound `CC1(C)C=Cc2c(c(OCC(O)CN3CCCC3)cc3ccc(=O)oc23)O1` (stereo not given), in the series filed under Rattus norvegicus [1], the Emax at 30 µM was less than 50%.

Consider `CCCCN(C)CC(O)COc1cc2ccc(=O)oc2c2c1OC(C)(C)C=C2` (stereo not given), for which the Emax at 30 µM in the series listed under Rattus norvegicus [1] was less than 50%.

With `CCCCCN(C)CC(O)COc1cc2ccc(=O)oc2c2c1OC(C)(C)C=C2` (stereo not given), the Emax at 30 µM in the series listed under Rattus norvegicus [1] was less than 50%.

For `CC1(C)C=Cc2c(ccc3ccc(=O)oc23)O1` [SESALIN], the result with BV-2 [2] and in the series with BV-2 [3] was Active. In the series listed under Rattus norvegicus [1], the Emax at 30 µM turned out to be 60.8%. Also, the results for the EC50 in the series listed under Rattus norvegicus [4] (read-out: EC50) and in the series listed under Rattus norvegicus [4] (read-out: pEC50 (converted)) were 2.12 µM and 2.14 µM, respectively.

For `CC(=O)OCC[N+](C)(C)C` [ACETYLCHOLINE], the result in the series listed under Rattus norvegicus [5] was Active. Besides, in the series filed under Rattus norvegicus [6], the Activity came out at 88.4%. Besides, the outcome in the series filed under Rattus norvegicus [7] was inactive.

In the case of `CCCOc1cc2ccc(=O)oc2c2c1OC(C)(C)C=C2`, the viability at 12 h, 10 µM in series [8] is 105%. The outcome in the series on BV-2 [2], in the series filed under Rattus norvegicus [11] and with BV-2 [3] was Active. For the same compound, the EC50 was 0.339 µM in the series filed under Rattus norvegicus [9], 1.9 µM in the series filed under Rattus norvegicus [4] (read-out: EC50), 2.04 µM in the series filed under Rattus norvegicus [4] (read-out: pEC50 (converted)) and 2.04 µM in the series listed under Rattus norvegicus [15]. Besides, in the series filed under Rattus norvegicus [10], the Activity entry was “Dose-Dependent Effect”. Besides, the viability at 12 h, 1 µM in [12] came out at 107%. Besides, the Emax at 30 µM in the series listed under Rattus norvegicus [1] turned out to be 80.6%. In addition, the maximal effect (Emax) in the series filed under Rattus norvegicus [13] was determined as 80.6%; in the series listed under Rattus norvegicus [14], 85%.

As for `CC1(C)C=Cc2c(c(OCC(O)CN3CCOCC3)cc3ccc(=O)oc23)O1` (stereo not given), in the series filed under Rattus norvegicus [1], the Emax at 30 µM was less than 50%.

Regarding `CC1(C)C=Cc2c(c(OCC(O)CN3CCCCC3)cc3ccc(=O)oc23)O1` (stereo not given), the Emax at 30 µM in the series listed under Rattus norvegicus [1] was less than 50%.

On to `CC(C)Oc1cc2ccc(=O)oc2c2c1OC(C)(C)C=C2`, for which, in the series listed under Rattus norvegicus [1], the Emax at 30 µM was less than 50%.

As for `CC1(C)C=Cc2c(c(OCC3CO3)cc3ccc(=O)oc23)O1` (stereo not given), in the series filed under Rattus norvegicus [1], the Emax at 30 µM is less than 50%.

Turning to `CC1(C)C=Cc2c(c(O)cc3ccc(=O)oc23)O1`, the result in the series with BV-2 [2] and in the series with BV-2 [3] was Active.

As to `CC1(C)C=Cc2c(c(OCC(O)CN3CCNCC3)cc3ccc(=O)oc23)O1` (stereo not given), the Emax at 30 µM in the series listed under Rattus norvegicus [1] is less than 50%.

`CCN(CC)CC(O)COc1cc2ccc(=O)oc2c2c1OC(C)(C)C=C2` (stereo not given): the Emax at 30 µM in the series filed under Rattus norvegicus [1] was less than 50%.

Consider `CN(C)CC(O)COc1cc2ccc(=O)oc2c2c1OC(C)(C)C=C2` (stereo not given), for which the Emax at 30 µM in the series listed under Rattus norvegicus [1] was less than 50%.

In the case of `CC(C)N(CC(O)COc1cc2ccc(=O)oc2c2c1OC(C)(C)C=C2)C(C)C` (stereo not given), the Emax at 30 µM in the series filed under Rattus norvegicus [1] was less than 50%.

As for `CC1(C)C=Cc2c(c(OCC(O)CNCc3ccccn3)cc3ccc(=O)oc23)O1` (stereo not given), in the series listed under Rattus norvegicus [1], the Emax at 30 µM was less than 50%.

With `COc1cc2ccc(=O)oc2cc1O` [SCOPOLETIN], the viability at 12 h, 10 µM in [8] turned out to be 102%. For the same compound, the result in the series with BV-2 [2] and in the series with BV-2 [3] was Active. Further, the viability at 12 h, 1 µM in series [12] came out at 91.2%.

Regarding `CN1CCN(CC(O)COc2cc3ccc(=O)oc3c3c2OC(C)(C)C=C3)CC1` (stereo not given), the Emax at 30 µM in the series filed under Rattus norvegicus [1] is less than 50%.

In the case of `COc1cc2ccc(=O)oc2c2c1OC(C)(C)C=C2`, in series [8], the viability at 12 h, 10 µM worked out at 95.2%. For the same compound, the result in the series with BV-2 [2] and in the series with BV-2 [3] was Active. Moreover, the viability at 12 h, 1 µM in [12] turned out to be 101%. Moreover, the EC50 in the series listed under Rattus norvegicus [4] (read-out: EC50) and in the series listed under Rattus norvegicus [4] (read-out: pEC50 (converted)) was 1.58 µM in each case.

As for `CCOc1cc2ccc(=O)oc2c2c1OC(C)(C)C=C2`, the viability at 12 h, 10 µM in [8] worked out at 105%. The result with BV-2 [2], in the series filed under Rattus norvegicus [11] and in the series with BV-2 [3] was Active. Further, the EC50 was 0.195 µM in the series listed under Rattus norvegicus [9], 0.2 µM in the series listed under Rattus norvegicus [4] (read-out: pEC50 (converted)) and 0.2 µM in the series listed under Rattus norvegicus [15]. The Activity result in the series listed under Rattus norvegicus [10] was “Dose-Dependent Effect”. Further, in series [12], the viability at 12 h, 1 µM was 114%. The Emax at 30 µM in the series listed under Rattus norvegicus [1] was found to be 96.6%. In addition, the Emax in the series listed under Rattus norvegicus [13] was found to be 96.6%; in the series listed under Rattus norvegicus [14], 91.4%.

For `CCCCOc1cc2ccc(=O)oc2c2c1OC(C)(C)C=C2`, the Emax at 30 µM in the series listed under Rattus norvegicus [1] was less than 50%.
